Measurements: patent publication US9271978B2 (Zenith Epigenetics Corp., priority 2012, dated 2016)

Experiments:
[1] = test system: hIL-6 mRNA; assay: Inhibition of hIL-6 mRNA transcription in U937 cells; format: cell-based, human; set-up: key: Active: Compounds with an IC50 value less than 30 μM were deemed to be active.; Not Active: Compounds with an IC50 value less than 30 μM were deemed to be active; settings: LPS stimulation, active = IC50 <30 μM
In short: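 U937 cells differentiated 3 days with 60 ng/mL PMA, pretreated 1 h with compound, then stimulated with 1 ug/mL E. coli LPS for 3 h at 37° C. hIL-6 mRNA quantified by one-step qRT-PCR, Ct normalized to internal control, expressed as fold induction relative to control.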

[2] = test system: c-myc; assay: Inhibition of c-myc expression in MV4-11 cells (mRNA, real-time PCR); format: cell-based; set-up: key: Active: Compounds with an IC50 value less than 30 μM were deemed to be active.; Not Active: Compounds with an IC50 value less than 30 μM were deemed to be active; settings: Human AML MV4-11 cells, 3 h incubation
In short: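 MV4-11 cells (2.5×10^4) treated with compound or 0.1% DMSO for 3 h at 37 °C. c-myc mRNA measured by RT real-time PCR duplexed with cyclophilin. IC50 from dose–response curve.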

[3] = test system: human AML MV-4-11 (CRL-9591) cells; assay: Inhibition of cell proliferation in MV4-11 cells; format: cell-based; set-up: key: Active: Compounds with an IC50 value less than 30 μM were deemed to be active.; Not Active: Compounds with an IC50 value less than 30 μM were deemed to be active; settings: human AML MV-4-11 cells, 72 h; active = IC50 <30 μM
In short: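 Exponentially growing MV-4-11 cells (5×10^4/well) were treated immediately with two-fold dilutions of compound from 30 μM to 0.2 μM, in triplicate, for 72 h at 37° C, 5% CO2. Viability was measured by MTS absorbance at 490 nm after 3–4 h. Proliferation relative to DMSO after blank correction gave IC50.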

[4] = test system: hIL-17 mRNA; assay: Inhibition of hIL-17 mRNA transcription in human peripheral blood mononuclear cells; format: cell-based; set-up: key: Active: Compounds with an IC50 value less than 30 μM were deemed to be active.; Not Active: Compounds with an IC50 value less than 30 μM were deemed to be active; settings: OKT3 antibody stimulation
Procedure: In this example, hIL-17 mRNA in human peripheral blood mononuclear cells was quantitated to measure the transcriptional inhibition of hIL-17 when treated with a compound of the invention.
Human peripheral blood mononuclear cells were plated (2.0×10^5 cells per well) in a 96-well plate in 45 μL OpTimizer T Cell expansion media containing 20 ng/ml IL-2 and penicillin/streptomycin. The cells were treated with the test compound (45 μL. at 2× concentration), and then the cells were incubated at 37° C. for 1 h before addition of 10× stock OKT3 antibody at 10 ug/ml in media. Cells were incubated at 37° C. for 3 h before the cells were harvested. At time of harvest, cells were centrifuged (800 rpm, 5 min). Spent media was removed and cell lysis solution (70 μL) was added the cells in each well and incubated for 5-10 min at room temperature, to allow for complete cell lysis and detachment. mRNA was then prepared using the “mRNA Catcher PLUS plate” (Invitrogen), according to the protocol supplied. After the last wash, as much wash buffer as possible was aspirated without allowing the wells to dry. Elution buffer (E3, 70 μL) was then added to each well. mRNA was then eluted by incubating the mRNA Catcher PLUS plate with Elution Buffer for 5 min at 68° C. and then immediately placing the plate on ice.
(§1) The eluted mRNA isolated was then used in a one-step quantitative real-time PCR reaction, using components of the Ultra Sense Kit together with Applied Biosystems primer-probe mixes. Real-time PCR data was analyzed, normalizing the Ct values for hIL-17 to an internal control, prior to determining the fold induction of each unknown sample, relative to the control.

[5] = target: T1, Brd4 bromodomain 1 (BRD4(1)) (Homo sapiens, UniProt O60885); assay: Inhibition of tetra-acetylated histone H4 binding to Brd4 bromodomain 1 (TR-FRET); set-up: key: Active: Compounds with an IC50 value less than 30 μM were deemed to be active.; Not Active: Compounds with an IC50 value less than 30 μM were deemed to be active; settings: tetra-acetylated histone H4 peptide, active = IC50 <30 μM
T1 construct: Illustrative results with the first bromodomain of Brd4; made in house; host or cells: E. coli BL21 (DE3)
In short: (§2)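 N-terminally His-tagged bromodomains (200 nM), expressed in E. coli, were incubated with biotinylated tetra-acetylated histone H4 peptide (25-50 nM), Eu-cryptate streptavidin and XL665 anti-His antibody in HEPES pH 7.4 buffer with KF, 0.2% DMSO, 2 h at room temperature. Inhibition read as decreased 665/620 nm TR-FRET; IC50 from dose-response curves.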

[6] = target: T2, second bromodomain of Brd2 (BRD2(2)) (Homo sapiens, UniProt P25440); assay: Inhibition of tetra-acetylated histone H4 binding to Brd2 bromodomain 2 (TR-FRET); set-up: key: Active: Compounds with an IC50 value less than 30 μM were deemed to be active.; Not Active: Compounds with an IC50 value less than 30 μM were deemed to be active; settings: tetra-acetylated histone H4 peptide, active = IC50 <30 μM
T2 construct: made in house; host or cells: E. coli BL21 (DE3)
T2 sequence (P25440 344-453 limits assumed): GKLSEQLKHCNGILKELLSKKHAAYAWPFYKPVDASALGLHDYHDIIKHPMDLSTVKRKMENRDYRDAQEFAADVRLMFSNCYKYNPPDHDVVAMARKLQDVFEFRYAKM
In short: as §2

[7] = test system: hMCP-1 mRNA; assay: Inhibition of hMCP-1 mRNA transcription in human peripheral blood mononuclear cells; format: cell-based; set-up: key: Active: Compounds with an IC50 value less than 30 μM were deemed to be active.; Not Active: Compounds with an IC50 value less than 30 μM were deemed to be active; settings: 3 h
Procedure: In this example, hMCP-1 mRNA in human peripheral blood mononuclear cells was quantitated to measure the transcriptional inhibition of hMCP-1 when treated with a compound of the present disclosure.
Human Peripheral Blood Mononuclear Cells were plated (1.0×10^5 cells per well) in a 96-well plate in 45 μL RPMI-1640 containing 10% FBS and penicillin/streptomycin. The cells were treated with the test compound (45 μL at 2× concentration), and then the cells were incubated at 37° C. for 3 h before the cells were harvested. At time of harvest, cells were transferred to V-bottom plates and centrifuged (800 rpm, 5 min). Spent media was removed and cell lysis solution (70 μL) was added the cells in each well and incubated for 5-10 min at room temperature, to allow for complete cell lysis and detachment. mRNA was then prepared using the “mRNA Catcher PLUS plate” (Invitrogen), according to the protocol supplied. After the last wash, as much wash buffer as possible was aspirated without allowing the wells to dry. Elution buffer (E3, 70 μL) was then added to each well. mRNA was then eluted by incubating the mRNA Catcher PLUS plate with Elution Buffer for 5 min at 68° C. and then immediately placing the plate on ice.
as §1, with “hMCP-1” for “hIL-17”

[8] = test system: MM1.s cells; assay: In vivo efficacy, multiple myeloma xenograft model using MM1.s cells; set-up: species or system mouse; settings: MM1.s multiple myeloma xenograft in mice, oral 25 to 90 mg/kg b.i.d, tumor growth inhibition
Procedure: MM1.s cells (ATCC) were grown under standard cell culture conditions and SCID-Beige strain of female mice age 6-7 weeks were injected with 10×10^6 cells/animal in 100 μl PBS+100 μL Matrigel in the lower left abdominal flank. By approximately day 21 after MM1.s cells injection, mice were randomized based on tumor volume (L×W×H)/2) of average ^˜120 mm^3. Mice were dosed orally with compound at 25 to 90 mg/kg b.i.d in EA006 formulation at 10 mL/kg body weight dose volume. Tumor measurements were taken with electronic micro calipers and body weights measured on alternate days beginning from dosing period. The average tumor volumes, percent Tumor Growth Inhibition (TGI) and % change in body weights were compared relative to Vehicle control animals. The means, statistical analysis and the comparison between groups were calculated using Student's t-test in Excel.

Row | IL-6 activity (IC50 <30 μM) [1] | c-myc activity (IC50 <30 μM) [2] | Cell Proliferation activity (IC50 <30 μM) [3] | IL-17 activity (IC50 < 30 μM) [4] | FRET activity (IC50 <30 μM) BRD4(1) [5] | FRET activity (IC50 <30 μM) BRD2(2) [6] | MCP-1 activity (IC50 < 30 μM) [7] | melting point | SMILES | In vivo activity [8]
1 | Active | Active | Active | Active | Active | – | – | – | Cc1noc(C)c1-c1cc(N)c(=O)n(Cc2cccc3[nH]ccc23)c1 [Example 247, 1-((1H-Indol-4-yl)methyl)-3-amino-5-(3,5-dimethylisoxazol-4-yl)pyridin-2(1H)-one] | –
2 | Active | – | Active | – | Active | Active | Active | – | Cc1noc(C)c1-c1ccc(=O)n(Cc2ccccc2F)c1 [Example 27, 5-(3,5-Dimethylisoxazol-4-yl)-1-(2-fluorobenzyl)pyridin-2(1H)-one] | –
3 | Active | Active | Active | Active | Active | – | – | – | Cc1noc(C)c1-c1cc(N)c(=O)n(Cc2cccc3[nH]cc(C)c23)c1 [Example 271, 3-Amino-5-(3,5-dimethylisoxazol-4-yl)-1-((3-methyl-1H-indol-4-yl)methyl)pyridin-2(1H)-one] | –
4 | – | – | – | – | Active | – | – | – | Cc1noc(C)c1-c1cc(N)c(=O)n(Cc2ccc(Cl)cc2)c1 [Example 152, 3-Amino-1-(4-chlorobenzyl)-5-(3,5-dimethylisoxazol-4-yl)pyridin-2(1H)-one] | Active
5 | Active | Active | Active | – | Active | Active | – | 165 to 167 °C | COc1cc(-c2cn(Cc3ccccc3)c(=O)c3ccccc23)ccc1O [Example 169, 2-Benzyl-4-(4-hydroxy-3-methoxyphenyl)isoquinolin-1(2H)-one] | –
